In the Biogen ADME set (Fang et al. 2023):
Values after ≈ are worked out from the molar mass of the structure shown.

Conditions: for aqueous solubility: pH 6.8

SMILES | MDR1-MDCK efflux ratio | intrinsic clearance, human liver microsomes [mL/min/kg] | intrinsic clearance, rat liver microsomes [mL/min/kg] | aqueous solubility [µg/mL] | fraction unbound, human plasma | fraction unbound, rat plasma
CNC(=O)c1cn(C)nc1CC1CCN(Cc2cnc(-c3ccc(OC)cc3)nc2)CC1 | 20.6 | ≤ 4.74 | 23.9 | 57.5 (≈ 132 µM) |  | 
Cc1nonc1C(=O)Nc1cccnc1N(C)C |  | 16.6 | 173 |  |  | 
CCCC(=O)Nc1ccc(-n2cccn2)nc1 | 0.559 | ≤ 4.74 | 31.8 | 45.2 (≈ 196 µM) |  | 
O=C(Nc1cccc(Cl)c1F)c1cccc(N2CCCC2=O)c1 |  | 82.8 | 894 | 3.4 (≈ 10.2 µM) |  | 
CNC(=O)c1ccc(/C=C/c2nc3cc(Cl)ccc3o2)cc1 | 0.598 |  |  | 0.76 (≈ 2.43 µM) |  | 
Cn1cc(-c2cn3nccc3c(-c3cnn([C@]4(CC#N)C[C@@H](C#N)C4)c3)n2)cn1 | 53.3 | ≤ 4.74 | ≤ 10.7 | 2.2 (≈ 5.74 µM) | 0.363 | 0.231
Cc1cccc(COc2cccc(/C=C3\C(=O)NN(c4ccccc4)C3=O)c2)c1 |  | 66.3 | 294 | 5.16 (≈ 13.4 µM) |  | 
Cc1cccc(OCCn2c(N)nc3ccccc32)c1 |  | 4.93 | 2200 | 39.1 (≈ 146 µM) |  | 
Cc1ccc(NC(=O)c2cccc(N(C)C)c2)cc1NC(=O)c1ccc(O)cc1 | 16.6 | 45.4 | 307 | 3.3 (≈ 8.47 µM) |  | 
Nc1nnc(SCCSC2CCCCC2)n1C1CC1 | 3.81 | 48.5 | 582 |  |  | 
Cc1cc(CN2CCN(c3ncccn3)CC2)on1 | 0.608 | ≤ 4.74 | 91.5 | 36.7 (≈ 141 µM) |  | 
O=C(COc1ccc2oc3c(c2c1)CCCC3)N1CCOCC1 |  | 31 | 2980 | 43 (≈ 136 µM) |  | 
COCCN(Cc1cccs1)Cc1cccc(C)c1O |  | 124 | 2100 | 1.05 (≈ 3.6 µM) |  | 
CCCOc1ccccc1C(=O)N1CC(Oc2cccc(OC)c2)C1 | 0.72 | 92.8 | 1360 | 42.3 (≈ 124 µM) |  | 
Cc1c(C(=O)NCc2cnc(N(C)C)n2C)sc2ccccc12 | 5 | 17.9 | 318 | 51 (≈ 155 µM) |  | 
Cc1nccc(NC(=O)c2ccc(Cl)nc2Cl)n1 | 0.548 | 5.24 | 15.2 |  |  | 
C[C@@H](c1ccc(F)cc1)n1nnc2cnc3ccc(-c4ccc5ocnc5c4)cc3c21 |  |  |  | 0.47 (≈ 1.15 µM) |  | 
CN(Cc1cnc2ccccc2n1)S(=O)(=O)N1CCCCCC1 | 0.62 | 230 | 5760 |  |  | 
COc1cccc(Cc2nc3sc4c(c3c(=O)[nH]2)CCSC4)c1 | 1.02 | 113 | 2820 |  |  | 
CC(=O)n1c(/C=C2/N=C(c3ccc(F)cc3)OC2=O)cc2ccccc21 |  | 109 | 144 | 5.43 (≈ 15.6 µM) |  | 
CCCCOc1ccc(-c2cc3c(=O)[nH]ccn3n2)cc1 | 0.743 |  |  | 0.2 (≈ 0.706 µM) |  | 
Cc1ccnc(-n2nccc2NC(=O)NC2(C)CCC2)c1 | 0.579 | 72.8 | 931 |  |  | 
Cc1cc(NC(=O)c2ccc(NC3CC3)nc2)[nH]n1 |  | 6.42 | 15.5 |  |  | 
Cc1nsc(Nc2ccccc2)c1C#N | 0.367 | 300 | 782 |  |  | 
CN(C)c1ccnc(NC(=O)c2cnsn2)c1 |  | 163 | 280 |  |  | 

Continued, values first:

MDR1-MDCK efflux ratio | intrinsic clearance, human liver microsomes [mL/min/kg] | intrinsic clearance, rat liver microsomes [mL/min/kg] | aqueous solubility [µg/mL] | fraction unbound, human plasma | fraction unbound, rat plasma | SMILES
15 | ≤ 4.74 | 27.4 |  |  |  | N#Cc1cnc2cc(F)cc(F)c2c1NC1CCN(CC(N)=O)CC1
0.471 | 276 | 1260 |  |  |  | CCCc1ccc(C(=O)CSc2nncs2)cc1
0.766 | 12.4 | 478 |  |  |  | Cc1cc(N(CCO)CCCO)ncc1Br
 | ≤ 4.74 | 109 | 40.1 (≈ 157 µM) |  |  | Cc1cc(C(=O)NCC2(c3ccccc3)CC2)on1
1.55 | ≤ 4.74 | ≤ 10.7 | 38.7 (≈ 179 µM) |  |  | CC(=O)Nc1ccc2nc(C)cc(O)c2c1
0.459 | ≤ 4.74 | 50.5 | 54.5 (≈ 137 µM) |  |  | O=C(O)c1cc(/N=N/c2ccc(S(=O)(=O)Nc3ccccn3)cc2)ccc1O
 |  |  | 29.4 (≈ 95.8 µM) |  |  | O=C(Nc1ccc(Cl)cc1)C(=O)N(C1CCCC1)C1CC1
1.98 | 22.7 | 169 |  |  |  | COc1ccccc1-c1cc(C(C)(C)C)nc(-c2ncccn2)n1
0.485 | 44.5 | 631 | 29.7 (≈ 81.9 µM) |  |  | COc1ccc2nc(CN3CCC(O)(c4ccc(C)cc4)CC3)ccc2c1
21.8 | ≤ 4.74 | 34.9 | 37.5 (≈ 121 µM) |  |  | C[C@@]1(c2ncncc2F)NC(=O)c2cc(-c3cn[nH]c3)ccc21
1.2 | 36.6 | 76.6 |  |  |  | COCC(=O)Nc1ccc(NC(=O)Cc2cc(C)ccc2C)cc1
4.39 | ≤ 4.74 | ≤ 10.7 |  |  |  | Cc1nccc(N(C)Cc2ccc(N)nc2)n1
0.534 | 126 | 516 |  |  |  | c1ccc(OCCN2CCN(c3ncccn3)CC2)cc1
2.76 | ≤ 4.74 | ≤ 10.7 | 35.7 (≈ 136 µM) |  |  | COc1ccc(CCC(=O)N2CCCNCC2)cc1
0.85 | 6.42 | 214 |  |  |  | CC1CCC(O)(CSc2nncn2C(C)C)CC1 (stereo unspecified)
0.666 | 17.8 | 570 | 31.1 (≈ 114 µM) |  |  | COc1ccncc1NCc1ccc2c(c1)OCCO2
 | 276 | 285 | 7.52 (≈ 30.3 µM) |  |  | Cc1ccc(NC(=O)c2cc(F)cc(F)c2)nc1
1.2 | ≤ 4.74 | ≤ 10.7 | 34.8 (≈ 147 µM) |  |  | CO[C@H]1COCCN(C(=O)c2cccnc2)C1
